Measurements from patent US12247022B2, “Combinations for treatment of NASH/NAFLD and related diseases” (Pfizer Inc., priority 2018, dated 2025).

What was measured:
[1] = system: proprotein convertase subtilisin/kexin type 9 (PCSK9); assay: Hepatic lipogenic gene expression (qPCR), Western diet fed rats: PCSK9; assay type: in vivo, rat; details: Actb housekeeping gene, Day 28 liver
Method: (§1) A randomized, vehicle-controlled, 8-parallel arm study was conducted in male Sprague-Dawley rats (Charles River (Boston, MA)) to obtain circulating and hepatic TG levels. Standard laboratory conditions were used to house 96 rats (˜200 g); they were double housed and kept under 12:12-hour reverse light-dark schedule (lights off at 8:00 AM). Rats were randomized into chow or Western diet groups and dose groups upon arrival and were given a 14-day lead-in period on either standard rat chow or Western diet prior to the start of the study. Standard Laboratory Rodent chow diet, 5053, was from LabDiet (PMI, St Louis, Missouri). Western Diet, D12079Bi, was from Research Diets (New Brunswick, New Jersey).
(§2) Starting on Day 1 of the study, rats were dosed orally (10 mL/kg) with either vehicle control (0.5% MC (wt/volume %) in dionized water), low or high doses of Compound A (1 mg/kg or 10 mg/kg QD, respectively), low or high doses of Compound D (5 mg/kg or 30 mg/kg BID respectively), or co-administration of low doses (Compound A at 1 mg/kg QD and Compound D at 5 mg/kg BID), or co-administration of high doses (Compound A at 10 mg/kg QD and Compound D at 30 mg/kg BID) […]
(§3) Another portion of the pulverized liver was processed and analyzed for lipogenic gene expression. Rat taqman probes against ACC1, FASN, SCD1, PCSK9 and SREBP-1c were all assessed using Actb as housekeeping gene on qPCR.

[2] = system: sterol regulatory element-binding protein 1c (SREBP-1c); assay: Hepatic lipogenic gene expression (qPCR), Western diet fed rats: SREBP-1c; assay type: in vivo, rat; details: Actb housekeeping gene, Day 28 liver
Method: as §1, §2, §3

With `CCOc1cccnc1Oc1cncc(-c2ncc(C(=O)N[C@H]3CCOC3)cn2)c1` [Compound D, (S)-2-(5-((3-ethoxypyridin-2-yl)oxy)pyridin-3-yl)-N-(tetrahydrofuran-3-yl)pyrimidine-5-carboxamide] the “hepatic PCSK9 gene expression relative to Western Diet fed and vehicle treated animals” value [1] was “decreased expression” and the “hepatic SREBP1 gene expression relative to Western Diet fed and vehicle treated animals” value [2] was “decreased expression”.
